Values after ≈ are worked out from the molar mass of the structure shown. Active and inactive are the calls of the source. The calls are words filed in the database; no cut-off is given here.
Legend:
[1] = system: Enterococcus; assay: Antibacterial activity against vancomycin-resistant Enterococcus by microbroth dilution assay; format: functional
[2] = system: Staphylococcus aureus; assay: Antibacterial activity against Staphylococcus aureus by microbroth dilution assay; format: functional
[3] = system: Enterococcus faecium; assay: Antibacterial activity against Enterococcus faecium by microbroth dilution assay; format: functional
[4] = system: Enterococcus faecium; assay: Antibacterial activity against Enterococcus faecium at 25 ug/disk by agar disk diffusion assay; format: functional; details: read-out: IZ
[5] = system: Enterococcus; assay: Antibacterial activity against vancomycin-resistant Enterococcus at 10 ug/disk by agar disk diffusion assay; format: functional; details: read-out: IZ
[6] = system: Enterococcus; assay: Antibacterial activity against vancomycin-resistant Enterococcus at 25 ug/disk by agar disk diffusion assay; format: functional; details: read-out: IZ
[7] = system: Staphylococcus aureus; assay: Antibacterial activity against methicillin-resistant Staphylococcus aureus at 10 ug/disk by agar disk diffusion assay; format: functional; details: read-out: IZ
[8] = system: Staphylococcus aureus; assay: Antibacterial activity against methicillin-resistant Staphylococcus aureus by microbroth dilution assay; format: functional
[9] = system: Staphylococcus aureus; assay: Antibacterial activity against Staphylococcus aureus at 10 ug/disk by agar disk diffusion assay; format: functional; details: read-out: IZ
[10] = system: Staphylococcus aureus; assay: Antibacterial activity against methicillin-resistant Staphylococcus aureus at 50 ug/disk by agar disk diffusion assay; format: functional; details: for zone of inhibition at 50 µg/disc: read-out: IZ
[11] = system: Staphylococcus aureus; assay: Antibacterial activity against Staphylococcus aureus at 50 ug/disk by agar disk diffusion assay; format: functional; details: for zone of inhibition at 50 µg/disc: read-out: IZ
[12] = system: Staphylococcus aureus; assay: Antibacterial activity against methicillin-resistant Staphylococcus aureus at 25 ug/disk by agar disk diffusion assay; format: functional; details: read-out: IZ
[13] = system: Staphylococcus aureus; assay: Antibacterial activity against Staphylococcus aureus at 25 ug/disk by agar disk diffusion assay; format: functional; details: read-out: IZ
[14] = system: Enterococcus faecium; assay: Antibacterial activity against Enterococcus faecium at 50 ug/disk by agar disk diffusion assay; format: functional, organism-based
[15] = system: Enterococcus; assay: Antibacterial activity against vancomycin-resistant Enterococcus at 50 ug/disk by agar disk diffusion assay; format: functional, organism-based
[16] = system: Enterococcus; assay: Antibacterial activity against vancomycin-resistant Enterococcus at 5 ug/disk by agar disk diffusion assay; format: functional; details: read-out: IZ
[17] = system: Enterococcus faecium; assay: Antibacterial activity against Enterococcus faecium at 10 ug/disk by agar disk diffusion assay; format: functional; details: read-out: IZ
[18] = system: Enterococcus faecium; assay: Antibacterial activity against Enterococcus faecium at 5 ug/disk by agar disk diffusion assay; format: functional; details: read-out: IZ

SMILES: O=C(O)CNC(=O)/C=C/CCCCCCCCCC=C(Br)Br [MOTUALEVIC ACID A]
- MIC [1]: 12 µg/mL (≈ 27.3 µM)
- MIC [2]: 11 µg/mL (≈ 25 µM)
- MIC [3]: 9.3 µg/mL (≈ 21.2 µM)
- zone of inhibition at 25 µg/disc [4]: 8 mm
- zone of inhibition at 10 µg/disc [5]: 8 mm
- zone of inhibition at 25 µg/disc [6]: 8 mm
- zone of inhibition at 10 µg/disc [7]: 8 mm
- MIC [8]: 9.3 µg/mL (≈ 21.2 µM)
- zone of inhibition at 10 µg/disc [9]: 8 mm

SMILES: O=C(O)/C=C/CCCCCCCCCC=C(Br)Br [MOTUALEVIC ACID E]
- inhibition zone (IZ) [10]: inactive
- zone of inhibition at 50 µg/disc [11]: 8 mm

SMILES: O=C(O)[C@@H]1C[C@H](O)CN1C(=O)/C=C/CCCCCCCCCC=C(Br)Br
- zone of inhibition at 25 µg/disc [4]: 8 mm
- zone of inhibition at 25 µg/disc [6]: 8 mm
- inhibition zone (IZ) [11]: inactive
- zone of inhibition at 25 µg/disc [12]: 8 mm

SMILES: O=C(O)[C@H]1CCCN1C(=O)/C=C/CCCCCCCCCC=C(Br)Br
- MIC [1]: 11 µg/mL (≈ 23 µM)
- MIC [2]: 18 µg/mL (≈ 37.6 µM)
- zone of inhibition at 25 µg/disc [13]: 8 mm
- MIC [3]: 15 µg/mL (≈ 31.3 µM)
- zone of inhibition at 25 µg/disc [4]: 8 mm
- zone of inhibition at 10 µg/disc [5]: 8 mm
- zone of inhibition at 25 µg/disc [6]: 8 mm
- zone of inhibition at 25 µg/disc [12]: 8 mm
- MIC [8]: 19 µg/mL (≈ 39.6 µM)

SMILES: O=C(O)C[C@H](NC(=O)/C=C/CCCCCCCCCC=C(Br)Br)C(=O)O
- MIC [1]: inactive
- inhibition zone (IZ) [14]: inactive
- MIC [2]: inactive
- MIC [3]: inactive
- inhibition zone (IZ) [15]: inactive
- inhibition zone (IZ) [11]: inactive
- MIC [8]: inactive

SMILES: O=C(O)CNC(=O)/C=C/CCCCCCCC=C(Br)Br
- zone of inhibition at 50 µg/disc [10]: 8 mm
- zone of inhibition at 50 µg/disc [11]: 8 mm

SMILES: O=C(O)[C@@H]1CCCN1C(=O)/C=C/CCCCCCCCCC=C(Br)Br
- zone of inhibition at 5 µg/disc [16]: 8 mm
- MIC [1]: 12 µg/mL (≈ 25 µM)
- MIC [2]: 10 µg/mL (≈ 20.9 µM)
- zone of inhibition at 25 µg/disc [13]: 8 mm
- MIC [3]: 10 µg/mL (≈ 20.9 µM)
- zone of inhibition at 25 µg/disc [4]: 8 mm
- zone of inhibition at 10 µg/disc [7]: 8 mm
- MIC [8]: 9 µg/mL (≈ 18.8 µM)

SMILES: O=C(O)CCCCCCCNC(=O)/C=C/CCC=C(Br)Br
- zone of inhibition at 25 µg/disc [13]: 8 mm
- zone of inhibition at 25 µg/disc [12]: 8 mm

SMILES: O=C(O)CNC(=O)/C=C/CCC=C(Br)Br
- inhibition zone (IZ) [10]: inactive
- inhibition zone (IZ) [11]: inactive

SMILES: O=C(/C=C/CCCCCCCCCC=C(Br)Br)N[C@H](C(=O)O)c1ccccc1
- MIC [1]: 22 µg/mL (≈ 42.7 µM)
- MIC [2]: 17 µg/mL (≈ 33 µM)
- zone of inhibition at 25 µg/disc [13]: 8 mm
- MIC [3]: 25 µg/mL (≈ 48.5 µM)
- zone of inhibition at 10 µg/disc [17]: 8 mm
- zone of inhibition at 10 µg/disc [5]: 8 mm
- zone of inhibition at 25 µg/disc [6]: 8 mm
- zone of inhibition at 25 µg/disc [12]: 8 mm
- MIC [8]: 21 µg/mL (≈ 40.8 µM)

SMILES: O=C(/C=C/CCCCCCCCCC=C(Br)Br)N[C@@H](Cc1ccccc1)C(=O)O
- zone of inhibition at 5 µg/disc [16]: 8 mm
- MIC [1]: 2.9 µg/mL (≈ 5.48 µM)
- MIC [2]: 5 µg/mL (≈ 9.45 µM)
- zone of inhibition at 5 µg/disc [18]: 8 mm
- zone of inhibition at 50 µg/disc [10]: 8 mm
- MIC [3]: 6.3 µg/mL (≈ 11.9 µM)
- inhibition zone (IZ) [11]: inactive
- MIC [8]: 4.4 µg/mL (≈ 8.31 µM)

SMILES: NC(=O)CNC(=O)/C=C/CCCCCCCCCC=C(Br)Br
- inhibition zone (IZ) [10]: inactive
- inhibition zone (IZ) [11]: inactive

SMILES: CCC/C=C/C(=O)NCC(=O)O
- inhibition zone (IZ) [10]: inactive
- inhibition zone (IZ) [11]: inactive

SMILES: O=C(O)CN(CC(=O)O)C(=O)/C=C/CCCCCCCCCC=C(Br)Br
- MIC [1]: inactive
- inhibition zone (IZ) [14]: inactive
- MIC [2]: inactive
- zone of inhibition at 50 µg/disc [10]: 8 mm
- MIC [3]: inactive
- inhibition zone (IZ) [15]: inactive
- zone of inhibition at 50 µg/disc [11]: 8 mm
- MIC [8]: inactive

SMILES: CCCCCCCCC/C=C/C(=O)NCC(=O)O
- inhibition zone (IZ) [10]: inactive
- inhibition zone (IZ) [11]: inactive

SMILES: CN(C)C(=O)CNC(=O)/C=C/CCCCCCCCCC=C(Br)Br
- inhibition zone (IZ) [10]: inactive
- inhibition zone (IZ) [11]: inactive

SMILES: O=C(O)CCCNC(=O)/C=C/CCCCCCCCCC=C(Br)Br
- MIC [1]: 8.5 µg/mL (≈ 18.2 µM)
- MIC [2]: 2.5 µg/mL (≈ 5.35 µM)
- zone of inhibition at 25 µg/disc [13]: 8 mm
- MIC [3]: 11 µg/mL (≈ 23.5 µM)
- zone of inhibition at 10 µg/disc [17]: 8 mm
- zone of inhibition at 10 µg/disc [5]: 8 mm
- zone of inhibition at 25 µg/disc [6]: 8 mm
- zone of inhibition at 25 µg/disc [12]: 8 mm
- MIC [8]: 2.4 µg/mL (≈ 5.14 µM)

SMILES: CC(C)C[C@H](NC(=O)/C=C/CCCCCCCCCC=C(Br)Br)C(=O)O
- zone of inhibition at 5 µg/disc [16]: 8 mm
- MIC [1]: 3.7 µg/mL (≈ 7.47 µM)
- MIC [2]: 2.3 µg/mL (≈ 4.64 µM)
- zone of inhibition at 25 µg/disc [13]: 8 mm
- MIC [3]: 6.4 µg/mL (≈ 12.9 µM)
- zone of inhibition at 10 µg/disc [17]: 8 mm
- zone of inhibition at 25 µg/disc [12]: 8 mm
- MIC [8]: 2.9 µg/mL (≈ 5.86 µM)

SMILES: O=C(O)CCNC(=O)/C=C/CCCCCCCCCC=C(Br)Br
- MIC [1]: 12 µg/mL (≈ 26.5 µM)
- MIC [2]: 3.6 µg/mL (≈ 7.94 µM)
- MIC [3]: 11 µg/mL (≈ 24.3 µM)
- zone of inhibition at 25 µg/disc [4]: 8 mm
- zone of inhibition at 10 µg/disc [5]: 8 mm
- zone of inhibition at 25 µg/disc [6]: 8 mm
- zone of inhibition at 10 µg/disc [7]: 8 mm
- MIC [8]: 3.3 µg/mL (≈ 7.28 µM)
- zone of inhibition at 10 µg/disc [9]: 8 mm

SMILES: C[N+](C)(C)CCNC(=O)/C=C/CCCCCCCCCC=C(Br)Br.[Cl-]
- MIC [1]: 5.2 µg/mL
- MIC [2]: 2.4 µg/mL
- MIC [3]: 3.7 µg/mL
- zone of inhibition at 25 µg/disc [4]: 8 mm
- zone of inhibition at 25 µg/disc [6]: 8 mm
- zone of inhibition at 10 µg/disc [7]: 8 mm
- MIC [8]: 4.2 µg/mL
- zone of inhibition at 10 µg/disc [9]: 8 mm
